From patent US20260098008A1, “COVALENT, CHEMOGENETIC ACTIVATORS FOR K2P POTASSIUM CHANNELS AND USES THEREOF” (THE REGENTS OF THE UNIVERSITY OF CALIFORNIA, priority 2022, published 2026)
Residue numbers refer to the chain shown, from its start.

Tests used:
[1] = molecular target: T1, A286F TREK-1^CG* (Mus musculus, UniProt P97438, A301F/S146C); test: Resting membrane potential, current-clamp (I=0) in HEK293 cells; assay type: cell-based; conditions: 20 μM CAT335
T1 construct: expressed in transfected cells; host or cells: Xenopus laevis oocytes injected with mRNA
T1 sequence (P97438 1-411 isoform P97438-2 S131C/A286F): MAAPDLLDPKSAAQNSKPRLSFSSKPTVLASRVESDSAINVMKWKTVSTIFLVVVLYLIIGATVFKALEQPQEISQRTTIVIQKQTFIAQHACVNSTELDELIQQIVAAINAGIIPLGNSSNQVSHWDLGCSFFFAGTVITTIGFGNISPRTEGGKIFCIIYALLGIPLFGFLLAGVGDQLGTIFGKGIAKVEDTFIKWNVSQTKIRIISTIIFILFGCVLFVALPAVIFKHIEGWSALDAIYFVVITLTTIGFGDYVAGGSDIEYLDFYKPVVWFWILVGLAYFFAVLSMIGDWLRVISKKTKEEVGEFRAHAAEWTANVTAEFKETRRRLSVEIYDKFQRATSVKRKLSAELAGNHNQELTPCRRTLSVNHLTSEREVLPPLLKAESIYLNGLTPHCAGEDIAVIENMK
Description: (§1) Mouse K2P2.1 (TREK-1) (Genbank accession number: NP_034737.2), mouse K2P10.1 (TREK-2) (NM_001316665.1), mouse K2P4.1 (TRAAK) (NM_008431.3), human K2P4.1 (TRAAK) (NM_033310.2) and mouse K2P18.1(TRESK) (NM_207261.3) were used for this study. Point mutations were introduced by site-directed mutagenesis using custom primers and confirmed by sequencing before use. For studies using Xenopus oocytes, K2P channels were subcloned into a previously reported pGEMHE/pMO vector (46). For expression in HEK293 cells, mouse K2P2.1 (TREK-1) and mutants were expressed from a previously described pIRES2-EGFP vector in HEK293 cells (46,47). K2P2.1 (TREK-1) tandems were constructed by connecting the open reading frames for the individual subunits with a linker encoding the […] (SEQ ID NO: 19) sequence. Tandems used for HEK293 cells included an N-terminal HA tag ([…] (SEQ ID NO: 20)) on the first subunit.
(§2) 50% confluent cells were co-transfected (in 35-mm diameter wells) with 10-100 ng of the K2P2.1 plasmid and 400 ng of an eGFP plasmid (for visualization) using LipofectAMINE 2000 (Invitrogen) for 24 h, after which the cells were either plated onto coverslips or the media exchanged with fresh media. […]
(§3) Whole-cell patch-clamp experiments with K2P2.1(TREK-1) and mutants were carried out 24-48 h after transfection. […] Data were analyzed using Clampfit 11 and GraphPad Prism 9.

[2] = molecular target: T2, TREK-1^CG* (Mus musculus, UniProt P97438, S146C); test: as above; assay type: cell-based; conditions: 20 μM CAT335
T2 construct: expressed in transfected cells; host or cells: HEK293 (pIRES2-EGFP vector)
T2 sequence (P97438 1-411 isoform P97438-2 S131C): T1 sequence (P97438 1-411 isoform P97438-2 S131C/A286F) with F286A
Description: as §1, §2, §3

O=C(NCc1ccc(Cl)cc1Cl)c1ccc(N2C(=O)C=CC2=O)cc1 [CAT335]
Change of resting membrane potential (ΔRMP) [1]: −27 mV | Change of resting membrane potential (ΔRMP) [2]: −6 mV
